Data set [1] deals with IDO1. On the set-up: method as in doi:10.1200/JCO.2019.37.7_suppl.358. The settings on record: once-daily oral dosing; cited from earlier work.
For data set [2], the system named is CD8-positive T cells co-cultured with HEK-hIDO1 cells. In words: co-culture assay of HEK-hIDO1 cells with PBMCs, CFSE proliferation. It counts as cell-based, human. The settings on record: 7.5 µM Trp; 10 µM NTRC 3883-0, 1 µM epacadostat; 5 days.
In data set [3] the target is T1, SW48 (hTDO) (Homo sapiens, UniProt P48775).
T1 construct: host or cells: SW48 cells
T1 sequence (P48775 whole entry): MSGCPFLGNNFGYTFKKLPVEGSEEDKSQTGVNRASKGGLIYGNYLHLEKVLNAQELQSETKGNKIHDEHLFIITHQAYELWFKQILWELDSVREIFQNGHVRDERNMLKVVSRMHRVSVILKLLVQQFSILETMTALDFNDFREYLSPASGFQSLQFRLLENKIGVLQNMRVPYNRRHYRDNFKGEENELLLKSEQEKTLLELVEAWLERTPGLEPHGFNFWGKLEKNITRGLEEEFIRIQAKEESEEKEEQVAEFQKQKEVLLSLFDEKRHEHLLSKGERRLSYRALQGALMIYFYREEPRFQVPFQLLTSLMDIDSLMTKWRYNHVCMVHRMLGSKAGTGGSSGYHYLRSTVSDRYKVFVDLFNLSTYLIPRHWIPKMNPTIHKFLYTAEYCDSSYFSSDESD
In words: cell-based assay, Trp-catabolizing activity in SW48 cells. The settings on record: Trp-catabolizing activity.

Data set [4] deals with HEK-hTDO (Homo sapiens, UniProt P48775). Put plainly: cell-based assay, Trp-catabolizing activity in HEK-hTDO cells.
HEK-hTDO, sequence (P48775 whole entry): as above
The target of data set [5] is GL-261-mTDO (Mus musculus, UniProt P48776). In words: cell-based assay, Trp-catabolizing activity in GL-261-mTDO cells. The settings on record: read-out: inhibition GL-261-mTDO.
GL-261-mTDO, sequence (P48776 whole entry): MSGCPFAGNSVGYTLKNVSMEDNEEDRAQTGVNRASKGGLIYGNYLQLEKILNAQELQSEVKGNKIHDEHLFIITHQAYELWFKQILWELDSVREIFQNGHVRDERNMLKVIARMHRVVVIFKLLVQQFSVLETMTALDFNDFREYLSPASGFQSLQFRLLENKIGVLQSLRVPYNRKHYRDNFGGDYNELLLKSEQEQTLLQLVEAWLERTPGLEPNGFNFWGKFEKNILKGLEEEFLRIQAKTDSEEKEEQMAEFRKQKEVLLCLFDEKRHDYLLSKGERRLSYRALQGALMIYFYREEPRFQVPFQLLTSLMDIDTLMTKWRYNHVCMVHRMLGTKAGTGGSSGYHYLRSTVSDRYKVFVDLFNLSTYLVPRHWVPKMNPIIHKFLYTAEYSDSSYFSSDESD
In data set [6] the test system is CT26 cells implanted subcutaneously into female BALB/c mice. Put plainly: CT26 mouse model, first study (ProQinase). The class given is in vivo. The settings on record: 50 mg/kg NTRC 3748-0 b.i.d., 100 mg/kg epacadostat q.d. As for the experimental part:
For the first CT26 mouse model study, performed at ProQinase, 5 × 10^5 CT26 cells were implanted subcutaneously into female BALB/c mice on day 0. […] Tumor growth was monitored using caliper measurement 2 times weekly. The study was terminated at day 22 based on the tumor burden. Tumors and plasma were sampled 2 h post last dose.
(§1) Tissues were homogenized in PBS at a ratio of 1 mg per 10 μl using micro pellet pestles mounted on a Micro-Tube Homogenizer System (Thomas Scientific). After centrifugation, proteins were removed from the homogenized tissue supernatants and plasma samples by precipitation with methanol. The concentrations of inhibitor, Trp and Kyn were determined by LC-MS/MS.

For data set [7], the target named is T2, human TDO (Homo sapiens, UniProt P48775).
T2 construct: hexahistidine (C); made in house; host or cells: Escherichia coli
T2 sequence (P48775 whole entry): as the sequence (P48775 whole entry) above
Put plainly: human TDO biochemical assay (NFK GreenScreen). The procedure: (§2) Full-length recombinant human and mouse IDO1 were expressed in Escherichia coli with a hexahistidine tag at the N-terminus, and purified by affinity chromatography to > 95% purity, as described ([8]). Human and mouse TDO containing a C-terminal hexahistidine tag were analogously expressed and purified to > 95% purity ([8]). The inhibitory activity of compounds was determined with the NFK GreenScreen assay technology under the conditions as described ([8]), except for the reaction buffer for IDO1, which was replaced by 50 mM NaH2PO4, pH 7.0, supplemented with 0.01% Tween-20 and 1% glycerol. Inhibition of the CYP3A4 and CYP2D6 enzymes was determined with the P450-Glo™ Screening System with Luciferin-IPA (Promega, #V9920 and V9890). For determination of IC50 values, the effect of inhibitors was determined in 10-point duplicate dose-response curves. Graphs were fitted to a four-parameter logistics equation in XLfit (ID Business Solutions, Ltd., Guildford, UK) from which IC50 values were calculated.

For data set [8], the system named is cell lines used in this study. Put plainly: cell viability assays (ATPlite 1Step). The settings on record: in parallel with the cell-based assays. (Cellular ATP, detected with luciferase, serves as a proxy for viable cell number.)
For data set [9], the system named is melanoma patients. The settings on record: combination with pembrolizumab; cited from earlier work.
The subject of data set [10] is IFNγ-stimulated adherent cell samples isolated from ascites of ovarian cancer patients. In words: Trp-catabolizing activity in IFNγ-stimulated ascites cell samples. The class given is cell-based. The settings on record: Homo sapiens. As for the experimental part: (§3) Ascites was collected from patients with a primary diagnosis of advanced epithelial ovarian cancer during paracentesis for diagnostics or symptom relieve, or during primary debulking surgery. Ascites was filtered and cells were collected by centrifugation as described ([23]). To enrich for tumor cells, ascites cell samples were allowed to adhere overnight to tissue culture plastic. The cell samples were then cultured for 2–3 weeks in advanced RPMI medium (ThermoFisher), supplemented with 10% FBS, 1% glutamax and 1% P/S, with 2 or 3 times passaging of the cells. qPCR analyses of the MUC16, HE4, IDO1, and TDO2 genes were performed for all samples as described above. Five samples which could be cultured over multiple passages were analyzed for cell surface expression of mucin-16 and EpCAM by flow cytometry using FITC-conjugated anti-mucin-16 (AssayPro, #32189-05141) and APC-conjugated anti-EpCAM (Miltenyi, #130-111-117, RRID: AB_2657496) to assure that the cell cultures consisted of malignant cells. IDO1 mRNA and protein levels in these samples were analyzed as described above after incubation with or without 200 ng/ml IFNγ for 24 h. The collection of ascites and the research described was conducted with approval of the medical ethical committee of the Radboud university medical center and informed written consent from each subject.

For data set [11], the system named is CT26 cells implanted subcutaneously into female BALB/c mice. Put plainly: CT26 mouse model, second study (Charles River). It counts as in vivo. The procedure: For the second study, performed at Charles River Laboratories, 3 × 10^5 CT26 cells were implanted subcutaneously into female BALB/c mice on day 0. […] Tumor growth was monitored using caliper measurement 3 times weekly. A tumor volume of 2000 mm^3 was used as the endpoint of the experiment for the individual animals. Tumors were sampled 2 h post last dose.
as §1

The target of data set [12] is T3, mTDO (Mus musculus, UniProt P48776).
T3 construct: hexahistidine (C); made in house; host or cells: Escherichia coli
T3 sequence (P48776 whole entry): as the sequence (P48776 whole entry) above
In words: mouse TDO biochemical assay (NFK GreenScreen). The procedure:
as §2

The subject of data set [13] is IDO1. The settings on record: cited from earlier work.
Data set [14] has as its system unstimulated adherent cell samples isolated from ascites of ovarian cancer patients. Put plainly: Trp-catabolizing activity in unstimulated ascites cell samples. The class given is cell-based, human. The settings on record: for IC50: Homo sapiens. As for the experimental part: as §3
Data set [15] deals with IDO1. The settings on record: cited from earlier work. This is another data set of the same source.
Data set [16] deals with B16F10-mIDO1 subline j19 in female B6D2F1 mice. In words: B16F10-mIDO1 syngeneic mouse model, intervention study. It counts as in vivo. The settings on record: 100 mg/kg p.o. b.i.d. from day 3. From the text: For development of the mIDO1-overexpressing B16F10 mouse model, performed at Charles River Laboratories, female B6D2F1 mice were implanted subcutaneously with 1 × 10^6 parental B16F10 cells or B16F10-mIDO1 cells (subline i6 or j19) on day 0 with n = 10 mice per group. A tumor volume of 2000 mm^3 was used as the endpoint of the experiment for the individual animals. To determine the optimal inoculation cell concentration, mice were implanted with 3 × 10^5, 1 × 10^5 or 3 × 10^4 parental or mIDO1-overexpressing B16F10 cells (subline j19) with n = 5 mice per group. The same endpoint of the experiment was used as described above. […] For the intervention study, 3 x 10^5 cells of the B16F10-mIDO1 subline j19 were implanted on day 0, and treatment was started on day 3 with vehicle (DMSO, Kolliphor, 5% mannitol; […]. Four animals were excluded from analysis due to non-treatment-related deaths. Tumors and plasma were sampled 2 h post last dose.
[…]. After centrifugation, proteins were removed from the homogenized tissue supernatants and plasma samples by precipitation with methanol. The concentrations of inhibitor, Trp and Kyn were determined by LC-MS/MS.

Results on 2 molecules are retold here after article PMC7876453, “Targeting Indoleamine 2,3-Dioxygenase in Cancer Models Using the Novel Small Molecule Inhibitor NTRC 3883-0” (Frontiers in Immunology, 2021).

Read-outs that look alike come from different tables or passages of the source.

Regarding `C[C@@H](C(=O)Nc1ccc(Cl)cc1)[C@H]1CC[C@@H](c2ccnc3ccc(F)cc32)CC1` [Linrodostat, linrodostat], the “safety and target coverage” value in data set [1] was “safety and good target coverage”.

`NS(=O)(=O)NCCNc1nonc1C(=NO)Nc1ccc(F)c(Br)c1` [epacadostat, reference compound]: the “effect on IDO1-mediated inhibition of T cell proliferation (in words)” value in [2] is on record as “relieved the inhibitory effect”. In addition, the IC50 (in general, the concentration at which inhibition is half-maximal) came out at 6460 nM in data set [3]; 24100 nM in data set [4]; 54 nM in data set [7]; 8.3 nM in [10] (IFNγ-stimulated samples, read-out: IC50); 3.7 nM in data set [10] (IFNγ-stimulated, read-out: IC50 ASC 009); 9.3 nM in data set [10] (IFNγ-stimulated, read-out: IC50 ASC 010). Further, the IC50 came to 9 nM in data set [10] (IFNγ-stimulated, read-out: IC50 ASC 013); 7.2 nM in data set [10] (IFNγ-stimulated, read-out: IC50 ASC 031); 7.4 nM in data set [10] (IFNγ-stimulated, read-out: IC50 ASC 041); 225 nM in [12]; 7730 nM in [14] (mean of samples, read-out: IC50 Mean); 9640 nM in data set [14] (read-out: IC50 ASC 010). The IC50 was found to be 9940 nM in data set [14] (read-out: IC50 ASC 013), 8630 nM in [14] (read-out: IC50 ASC 031) and 4310 nM in data set [14] (read-out: IC50 ASC 041). The “times lower activity on TDO in the HEK-hTDO assay than in the biochemical assay” value in data set [4] (cell-based versus biochemical TDO IC50) is reported as “more than 400 times”. Moreover, the inhibition (commonly the drop in the measured response relative to a control, in per cent) at 31.6 µM in [5] was determined as 28%. Moreover, the “Kyn levels in the tumor” value in [6] (LC-MS/MS, 2 h post last dose) was “considerable reduction of Kyn levels”; in [11] (LC-MS/MS, 2 h post last dose, 100 mg/kg p.o. b.i.d.), “considerable reduction of Kyn levels”. For the same molecule, the tumor growth entry in [6] (p.o. from day 8) is reported as “inhibition of tumor growth”; in data set [11] (100 mg/kg p.o. b.i.d. from day 8) it was “no inhibition of tumor growth”. Besides, in [8], the cytotoxicity result is “not cytotoxic”. In addition, the objective response in data set [9] was 12 out of 22. In addition, the “clinical benefit of the combination over pembrolizumab plus placebo” value in data set [13] is listed as “no clinical benefit”. Moreover, in data set [14], the “inhibition of basal Trp-catabolizing activity (in words)” value is listed as “no or only minimal inhibition”. Also, the “tolerability in human patients” value in [15] is recorded as “well tolerated”. The “tumor growth corrected for the variation in time until tumor establishment” value in data set [16] is reported as “delay in tumor growth”. Also, in data set [16], the “tumor growth in comparison to vehicle-treated animals” value is “no effect”.
